# Earlier results, collected in patent US20240245628A1, “COMPOSITIONS AND METHODS FOR HEALTH COMPRISING CO-ENZYME Q10” (Bausch + Lomb Ireland Limited, priority 2023, published 2024).
# Details: at levels as high as 800.0 mg
substance,measurement,value
vitamin E,adverse effects of vitamin E,No adverse effects
